# Experimental data reported in patent US9630001B2, “Methods for modulating osteochondral development using bioelectric stimulation” (MedRelief Inc., priority 2005, dated 2017).
# Test system: Normal human cartilage cells (HCC)
# Assay: Cell growth assessed by DNA content of the cell layer
# Assay type: cell-based
# Settings: 0.1% serum, PEMF 40 microAmps once every 24 hours, measured after 72 hours, L-NAME co-administered
# Description: Normal human cartilage cells (HCC; CAMBREX®, Walkersville, Md.) were plated in rectangular cell chambers in monolayer. PEMF application was capacitively coupled through a niobium electrode bridge system which allowed a time varying current to flow uniformly through the chambers. A pulse-burst B-type signal as described herein is composed of a 10-msec burst of asymmetric rectangular pulses, 200/28 microseconds in width, repeated at 15 Hz. The PEMF signal was applied for 30 minutes per treatment. Cell growth was assessed by DNA content of the cell layer. Nitric oxide (NO) content of culture media was assessed by the Griess reaction using an assay kit from INVITROGEN INC.® (Carlsbad, Calif.). Results are expressed as micromoles of NO per cell number as assessed by DNA content of the cell layer.
compound,measurement,value
"COC(=O)[C@@H](N)CCCNC(=N)N[N+](=O)[O-] [L-NAME, N(G)-nitro-1-arginine methyl ester]","effect on PEMF-increased cell number (DNA, FIG. 7)",attenuated
